Data on 14 compounds can be found in US20240294499A1, “TARGETED PROTEIN DEGRADATION USING BIFUNCTIONAL COMPOUNDS THAT BIND UBIQUITIN LIGASE AND TARGET MCL-1 PROTEIN” (Captor Therapeutics S.A., priority 2021, published 2024).

Structures are written as SMILES. Some results are limits rather than exact numbers.

Test [1] has as its target [MCL-1]-[compound of formula (I)]-[CRBN/DDB1] complex (Homo sapiens, UniProt Q07820+Q96SW2). Put plainly: HTRF ternary complex assay. Format: binding. The following applies: ternary complex formation; read-out: HTRF ternary complex Average pEC50 by molecule (converted). As to the method: The effect of the bifunctional compounds of the invention on the formation of a ternary complex composed of [MCL-1]-[compound of formula (I)]-[CRBN/DDB1] was investigated.
Mix of protein solution were prepared: • 48 nM hMcl-1 and 105.6 nM CRBN was prepared in PPI Europium detection buffer with 2 mM DTT. • Acceptor and donor stock solutions were diluted 100 times in PPI Europium detection buffer. Equal volumes of both reagents were mixed. Finally giving 3 nM of Streptavidin-Eu cryptate […] and 6.67 nM of Anti-6× his-d2 […].
5 μl of protein mix was dispensed to all wells. The tested compounds in dose-response were dispensed onto a white 384-well low volume plate (Greiner, 784075). DMSO was backfilled to all wells, resulting in a final DMSO content of 0.5%. Wells containing only DMSO served as background. Next, 5 μl of solution with donor and acceptor was added to the wells.
The plate was sealed with transparent film and shaken using a VibroTurbulator for 60 see at level 3. The plate was then spun down shortly (10 s, 1000 rcf) and incubated at 25° C. for 180 min.
The read-out was performed with plate reader (Pherastar, BMG Labtech) in time resolved fluorescence mode. Filterset: TR 337 665 620.
The results were analyzed as follows: • 1) an average of fluorescence for background signal was calculated and used as a negative control; • 2) raw fluorescence values for tested compounds were normalized against negative controls; • 3) bell shape curve was fitted to a gaussian distribution using a non-linear least squares Gauss-Newton algorithm; • 4) EC50 and pEC50 values were determined.
(In TR-FRET formats the signal depends on donor and acceptor labels being close together.)

A further test relates to MV-4-11 cells. Put plainly: Cell viability assay (CellTiter-Glo), MV-4-11. Format: cell-based. The following applies: Homo sapiens, MV4-11, 24 hours incubation, 1% FBS, read-out: Average pIC50 by molecule MV-4-11 (converted). In outline:
(§1)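 Luminescent ATP readout (CellTiter-Glo) at 24 hours measured viability, expressed relative to DMSO-treated wells. Compound was added directly to the medium as a 9–12-point threefold series starting at 30 uM, at 0.5% final DMSO. The medium contained FBS reduced to 1%.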
Background: ATP-based viability assays read luminescence as a measure of living cells.

The subject of the next test is ARH-77 cells. Put plainly: Cell viability assay (CellTiter-Glo), ARH-77. Format: cell-based. The note with it: Homo sapiens, ARH-77, 24 hours incubation, 1% FBS, read-out: Average pIC50 by molecule ARH-77 (converted). In outline: as §1

Sequence of [MCL-1]-[compound of formula (I)]-[CRBN/DDB1] complex (Q07820 whole entry): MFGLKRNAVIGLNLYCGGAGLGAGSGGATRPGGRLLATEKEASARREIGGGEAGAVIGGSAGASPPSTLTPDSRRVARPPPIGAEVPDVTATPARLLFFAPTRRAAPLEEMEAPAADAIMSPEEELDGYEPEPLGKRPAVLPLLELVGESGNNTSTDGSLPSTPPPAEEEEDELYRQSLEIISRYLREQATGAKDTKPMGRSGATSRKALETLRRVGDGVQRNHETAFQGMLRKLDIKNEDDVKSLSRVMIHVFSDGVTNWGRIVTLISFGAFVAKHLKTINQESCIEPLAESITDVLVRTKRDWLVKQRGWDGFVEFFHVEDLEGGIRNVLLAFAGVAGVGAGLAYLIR
Sequence of [MCL-1]-[compound of formula (I)]-[CRBN/DDB1] complex (Q96SW2 whole entry): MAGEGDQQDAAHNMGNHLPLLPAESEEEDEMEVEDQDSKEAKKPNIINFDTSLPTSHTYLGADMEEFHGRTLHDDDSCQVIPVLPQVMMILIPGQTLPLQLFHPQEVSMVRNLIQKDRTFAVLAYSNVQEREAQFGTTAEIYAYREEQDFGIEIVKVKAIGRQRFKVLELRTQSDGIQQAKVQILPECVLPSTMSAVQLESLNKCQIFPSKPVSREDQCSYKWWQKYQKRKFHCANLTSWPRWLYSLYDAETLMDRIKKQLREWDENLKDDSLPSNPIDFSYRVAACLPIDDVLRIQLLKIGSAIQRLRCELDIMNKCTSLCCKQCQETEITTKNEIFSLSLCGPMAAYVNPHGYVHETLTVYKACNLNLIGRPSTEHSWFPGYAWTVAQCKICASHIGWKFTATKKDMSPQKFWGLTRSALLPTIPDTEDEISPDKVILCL
Sequence of [MCL-1]-[compound of formula (I)]-[CRBN/DDB1] complex (Q16531 whole entry partner): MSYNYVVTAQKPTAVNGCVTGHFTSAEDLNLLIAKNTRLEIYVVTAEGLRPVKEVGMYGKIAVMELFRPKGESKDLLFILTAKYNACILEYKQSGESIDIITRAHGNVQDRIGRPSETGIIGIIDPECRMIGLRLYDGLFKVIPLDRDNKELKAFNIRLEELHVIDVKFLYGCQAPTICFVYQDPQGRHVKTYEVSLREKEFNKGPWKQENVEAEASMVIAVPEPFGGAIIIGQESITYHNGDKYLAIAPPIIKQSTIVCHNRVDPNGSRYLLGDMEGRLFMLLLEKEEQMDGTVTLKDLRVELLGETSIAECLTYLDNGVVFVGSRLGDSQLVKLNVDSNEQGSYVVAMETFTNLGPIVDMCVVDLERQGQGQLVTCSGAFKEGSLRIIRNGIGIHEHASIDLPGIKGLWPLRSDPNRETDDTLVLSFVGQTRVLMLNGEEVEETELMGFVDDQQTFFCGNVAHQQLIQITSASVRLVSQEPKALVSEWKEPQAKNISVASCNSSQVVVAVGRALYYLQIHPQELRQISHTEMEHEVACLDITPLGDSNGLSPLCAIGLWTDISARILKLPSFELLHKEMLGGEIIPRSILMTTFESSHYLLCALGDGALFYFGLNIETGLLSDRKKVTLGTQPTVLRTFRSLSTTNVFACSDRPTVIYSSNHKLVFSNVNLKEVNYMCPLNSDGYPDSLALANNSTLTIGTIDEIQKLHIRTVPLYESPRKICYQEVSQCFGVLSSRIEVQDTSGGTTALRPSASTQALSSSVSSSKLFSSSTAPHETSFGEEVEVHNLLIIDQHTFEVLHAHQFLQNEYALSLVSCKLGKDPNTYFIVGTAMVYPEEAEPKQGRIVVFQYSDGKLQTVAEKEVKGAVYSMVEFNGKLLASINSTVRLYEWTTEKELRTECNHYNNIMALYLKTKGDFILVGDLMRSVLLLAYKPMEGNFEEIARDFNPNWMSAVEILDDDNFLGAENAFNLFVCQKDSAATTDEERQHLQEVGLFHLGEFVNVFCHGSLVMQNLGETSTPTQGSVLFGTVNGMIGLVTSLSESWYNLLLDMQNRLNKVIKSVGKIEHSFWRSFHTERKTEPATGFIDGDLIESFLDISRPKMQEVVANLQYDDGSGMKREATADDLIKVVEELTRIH

As to `Cc1nn(C)c(C)c1-c1c(Cl)ccc2c(CCCOc3cccc4cc(F)ccc34)c(C(=O)O)n(CCN3CCN(C4CN(c5cc6c(cc5F)C(=O)N(C5CCC(=O)NC5=O)C6=O)C4)CC3)c12` (stereo not drawn) [Compound 335, 6-Chloro-1-(2-(4-(1-(2-(2,6-dioxopiperidin-3-yl)-6-fluoro-1,3-dioxoisoindolin-5-yl)azetidin-3-yl)piperazin-1-yl)ethyl)-3-(3-((6-fluoronaphthalen-1-yl)oxy)propyl)-7-(1,3,5-trimethyl-1H-pyrazol-4-yl)-1H-indole-2-carboxylic acid], the EC50 in test [1] is under 10 nM. For the same compound, the values for the IC50 in the test with MV-4-11 cells and in the test with ARH-77 cells were at most 31.6 nM and over 3160 nM, respectively. The corresponding values for `Cc1nc2cc(NCC(=O)N3CCN(CCn4c(C(=O)O)c(CCCOc5cccc6cc(F)ccc56)c5ccc(Cl)c(-c6c(C)nn(C)c6C)c54)CC3)ccc2cc1C1CCC(=O)NC1=O` (stereo not drawn) [Compound 285, 6-Chloro-1-(2-(4-((3-(2,6-dioxopiperidin-3-yl)-2-methylquinolin-7-yl)glycyl)piperazin-1-yl)ethyl)-3-(3-((6-fluoronaphthalen-1-yl)oxy)propyl)-7-(1,3,5-trimethyl-1H-pyrazol-4-yl)-1H-indole-2-carboxylic acid] are under 10 nM, at most 100 nM and over 10000 nM. With `O=C1CCC(N2Cc3c(OCC(=O)N4CCN(CCn5c(C(=O)O)c(CCCOc6cccc7cc(F)ccc67)c6ccc(Cl)c(-c7cnn8cccnc78)c65)CC4)cccc3C2=O)C(=O)N1` (stereo not drawn) [Compound 348, 6-Chloro-1-(2-(4-(2-((2-(2,6-dioxopiperidin-3-yl)-1-oxoisoindolin-4-yl)oxy)acetyl)piperazin-1-yl)ethyl)-3-(3-((6-fluoronaphthalen-1-yl)oxy)propyl)-7-(pyrazolo[1,5-a]pyrimidin-3-yl)-1H-indole-2-carboxylic acid], the EC50 in test [1] was under 100 nM. Moreover, the IC50 in the test with MV-4-11 cells was at most 316 nM; in the test on ARH-77 cells, over 10000 nM. `Cc1nn(C)c(C)c1-c1c(Cl)ccc2c(CCCOc3cccc4cc(F)ccc34)c(C(=O)O)n(CCOCCCn3c(C)nc4c(C(=O)NC5CCC(=O)NC5=O)cccc43)c12` (stereo not drawn) [Compound 282, 6-Chloro-1-[2-(3-{4-[(2,6-dioxopiperidin-3-yl)carbamoyl]-2-methyl-1H-1,3-benzodiazol-1-yl}propoxy)ethyl]-3-{3-[(6-fluoronaphthalen-1-yl)oxy]propyl}-7-(1,3,5-trimethyl-1H-pyrazol-4-yl)-1H-indole-2-carboxylic acid]: in test [1], the EC50 was under 100 nM. Moreover, the IC50 was at most 31.6 nM in the test on MV-4-11 cells and over 3160 nM with ARH-77 cells.

Turning to `Cc1nn(C)c(C)c1-c1c(Cl)ccc2c(CCCOc3cccc4cc(F)ccc34)c(C(=O)O)n(CCC3CCC(NC(=O)COc4cccc5c4CN(C4CCC(=O)NC4=O)C5=O)CN3C)c12` (stereo not drawn) [Compound 306, 6-Chloro-1-{2-[5-(2-{[2-(2,6-dioxopiperidin-3-yl)-1-oxo-2,3-dihydro-1H-isoindol-4-yl]oxy}acetamido)-1-methylpiperidin-2-yl]ethyl}-3-{3-[(6-fluoronaphthalen-1-yl)oxy]propyl}-7-(1,3,5-trimethyl-1H-pyrazol-4-yl)-1H-indole-2-carboxylic acid], the EC50 in test [1] is under 10 nM. Moreover, the IC50 in the test on MV-4-11 cells is at most 100 nM; in the test on ARH-77 cells, over 10000 nM. As for `Cc1nn(C)c(C)c1-c1c(Cl)ccc2c(CCCOc3cccc4cc(F)ccc34)c(C(=O)O)n(CCN3CCC(N4CCN(c5cc6c(cc5F)C(=O)N(C5CCC(=O)NC5=O)C6=O)CC4)CC3)c12` (stereo not drawn) [Compound 336, 6-Chloro-1-[2-(4-{4-[2-(2,6-dioxopiperidin-3-yl)-6-fluoro-1,3-dioxo-2,3-dihydro-1H-isoindol-5-yl]piperazin-1-yl}piperidin-1-yl)ethyl]-3-{3-[(6-fluoronaphthalen-1-yl)oxy]propyl}-7-(1,3,5-trimethyl-1H-pyrazol-4-yl)-1H-indole-2-carboxylic acid], in test [1], the EC50 is under 10 nM. In addition, the IC50 with MV-4-11 cells is at most 100 nM; with ARH-77 cells, over 10000 nM.

Turning to `Cc1nn(C)c(C)c1-c1c(Cl)ccc2c(CCCOc3cccc4cc(F)ccc34)c(C(=O)O)n(CCN3CCC(C(=O)N4CCN(c5cc6c(cc5F)C(=O)N(C5CCC(=O)NC5=O)C6=O)CC4)CC3)c12` (stereo not drawn) [Compound 333, 6-Chloro-1-[2-(4-{4-[2-(2,6-dioxopiperidin-3-yl)-6-fluoro-1,3-dioxo-2,3-dihydro-1H-isoindol-5-yl]piperazine-1-carbonyl}piperidin-1-yl)ethyl]-3-{3-[(6-fluoronaphthalen-1-yl)oxy]propyl}-7-(1,3,5-trimethyl-1H-pyrazol-4-yl)-1H-indole-2-carboxylic acid], the EC50 in test [1] was under 10 nM. Besides, in the test with MV-4-11 cells, the IC50 is at most 1000 nM. In the case of `Cc1nn(C)c(C)c1-c1c(Cl)ccc2c(CCCOc3cccc4cc(F)ccc34)c(C(=O)O)n(CCN3CCN(C(=O)C(C)(C)Oc4cccc5c4CN(C4CCC(=O)NC4=O)C5=O)CC3)c12` (stereo not drawn) [Compound 311, 6-Chloro-1-{2-[4-(2-{[2-(2,6-dioxopiperidin-3-yl)-1-oxo-2,3-dihydro-1H-isoindol-4-yl]oxy}-2-methylpropanoyl)piperazin-1-yl]ethyl}-3-{3-[(6-fluoronaphthalen-1-yl)oxy]propyl}-7-(1,3,5-trimethyl-1H-pyrazol-4-yl)-1H-indole-2-carboxylic acid], in test [1], the EC50 is under 100 nM. On to `Cc1nn(C)c(C)c1-c1c(Cl)ccc2c(CCCOc3cccc4cc(F)ccc34)c(C(=O)O)n(CCN3CC4(CCCN(C(=O)COc5cccc6c5CN(C5CCC(=O)NC5=O)C6=O)C4)C3)c12` (stereo not drawn) [Compound 304, 6-Chloro-1-(2-(6-(2-((2-(2,6-dioxopiperidin-3-yl)-1-oxoisoindolin-4-yl)oxy)acetyl)-2,6-diazaspiro[3.5]nonan-2-yl)ethyl)-3-(3-((6-fluoronaphthalen-1-yl)oxy)propyl)-7-(1,3,5-trimethyl-1H-pyrazol-4-yl)-1H-indole-2-carboxylic acid], for which, in test [1], the EC50 was under 100 nM. With `Cc1nc2cc(OCC(=O)N3CCN(CCn4c(C(=O)O)c(CCCOc5cccc6cc(F)ccc56)c5ccc(Cl)c(-c6c(C)nn(C)c6C)c54)CC3)ccc2cc1C1CCC(=O)NC1=O` (stereo not drawn) [Compound 288, 6-Chloro-1-(2-(4-(2-((3-(2,6-dioxopiperidin-3-yl)-2-methylquinolin-7-yl)oxy)acetyl)piperazin-1-yl)ethyl)-3-(3-((6-fluoronaphthalen-1-yl)oxy)propyl)-7-(1,3,5-trimethyl-1H-pyrazol-4-yl)-1H-indole-2-carboxylic acid], the EC50 in test [1] is under 100 nM. For `Cc1nn(C)c(C)c1-c1c(Cl)ccc2c(CCCOc3cccc4cc(F)ccc34)c(C(=O)O)n(CCN3CCN(C(=O)CSc4cccc5c4CN(C4CCC(=O)NC4=O)C5=O)CC3)c12` (stereo not drawn) [Compound 322, 6-Chloro-1-(2-(4-(2-((2-(2,6-dioxopiperidin-3-yl)-1-oxoisoindolin-4-yl)thio)acetyl)piperazin-1-yl)ethyl)-3-(3-((6-fluoronaphthalen-1-yl)oxy)propyl)-7-(1,3,5-trimethyl-1H-pyrazol-4-yl)-1H-indole-2-carboxylic acid], the EC50 in test [1] was under 100 nM. As to `Cc1nc2ccc(C(=O)N3CCN(CCn4c(C(=O)O)c(CCCOc5cccc6cc(F)ccc56)c5ccc(Cl)c(-c6c(C)nn(C)c6C)c54)CC3)cc2cc1C1CCC(=O)NC1=O` (stereo not drawn) [Compound 290, 6-Chloro-1-(2-(4-(3-(2,6-dioxopiperidin-3-yl)-2-methylquinoline-6-carbonyl)piperazin-1-yl)ethyl)-3-(3-((6-fluoronaphthalen-1-yl)oxy)propyl)-7-(1,3,5-trimethyl-1H-pyrazol-4-yl)-1H-indole-2-carboxylic acid], in test [1], the EC50 is under 10 nM. `Cc1nn(C)c(C)c1-c1c(Cl)ccc2c(CCCOc3cccc4cc(F)ccc34)c(C(=O)O)n(CCN3CC4(C3)CN(C(=O)COc3cccc5c3CN(C3CCC(=O)NC3=O)C5=O)C4)c12` (stereo not drawn) [Compound 303]: the EC50 in test [1] was under 100 nM.

In the case of `Cc1nc2cc(C(=O)N3CCN(CCn4c(C(=O)O)c(CCCOc5cccc6cc(F)ccc56)c5ccc(Cl)c(-c6c(C)nn(C)c6C)c54)CC3)ccc2cc1C1CCC(=O)NC1=O` (stereo not drawn) [Compound 291, 6-Chloro-1-(2-{4-[3-(2,6-dioxopiperidin-3-yl)-2-methylquinoline-7-carbonyl]piperazin-1-yl}ethyl)-3-{3-[(6-fluoronaphthalen-1-yl)oxy]propyl}-7-(1,3,5-trimethyl-1H-pyrazol-4-yl)-1H-indole-2-carboxylic acid], the EC50 in test [1] was under 100 nM.
